Tests used:
[1] = Half life in ICR mouse at 20 mg/kg, po by LC-MS/MS analysis; type: ADME, organism-based; conditions: in vivo
[2] = Elimination rate constant in ICR mouse at 20 mg/kg, po up to 24 hrs by LC-MS/MS analysis; type: ADME, organism-based; conditions: in vivo
[3] = AUC (0 to t) in ICR mouse at 20 mg/kg, po by LC-MS/MS analysis; type: ADME, organism-based; set-up: dose 20 mg/kg; conditions: in vivo
[4] = MRT in ICR mouse at 20 mg/kg, po by LC-MS/MS analysis; type: ADME, organism-based; conditions: in vivo
Adenosine receptor A2a = Adenosine receptor A2a (Homo sapiens, UniProt P29274); test: Displacement of [3H]SCH58261 from adenosine A2A receptor membrane (unknown origin) measured after 60 mins by scintillation counting analysis; type: cell membranes
Adenosine receptor A2a, sequence (P29274 whole entry): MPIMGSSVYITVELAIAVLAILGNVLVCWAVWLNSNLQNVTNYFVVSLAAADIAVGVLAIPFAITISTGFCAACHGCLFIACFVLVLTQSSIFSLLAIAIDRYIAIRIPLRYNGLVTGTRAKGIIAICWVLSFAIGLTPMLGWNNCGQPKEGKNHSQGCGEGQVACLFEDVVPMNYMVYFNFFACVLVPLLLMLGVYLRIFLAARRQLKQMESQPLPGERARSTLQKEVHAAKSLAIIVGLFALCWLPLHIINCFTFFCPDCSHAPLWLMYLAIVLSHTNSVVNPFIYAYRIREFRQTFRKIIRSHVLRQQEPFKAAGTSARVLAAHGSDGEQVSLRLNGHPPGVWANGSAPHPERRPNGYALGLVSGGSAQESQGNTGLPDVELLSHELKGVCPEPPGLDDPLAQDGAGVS

[5] = Cmax in ICR mouse at 20 mg/kg, po by LC-MS/MS analysis; type: ADME, organism-based; set-up: route oral, dose 20 mg/kg; conditions: in vivo
CT26 = test: Antiproliferative activity against mouse CT26 cells measured after 72 hrs by CCK8 assay; type: functional; conditions: Mus musculus, CT26
Histone deacetylase 1 = Histone deacetylase 1 (Homo sapiens, UniProt Q13547); test: Inhibition of HDAC1 (unknown origin) assessed as release of 7-amino-4-methylcoumarin incubated in room temperature for 15 min measured by Spectra max microtitre plate reader
Histone deacetylase 1, sequence (Q13547 whole entry): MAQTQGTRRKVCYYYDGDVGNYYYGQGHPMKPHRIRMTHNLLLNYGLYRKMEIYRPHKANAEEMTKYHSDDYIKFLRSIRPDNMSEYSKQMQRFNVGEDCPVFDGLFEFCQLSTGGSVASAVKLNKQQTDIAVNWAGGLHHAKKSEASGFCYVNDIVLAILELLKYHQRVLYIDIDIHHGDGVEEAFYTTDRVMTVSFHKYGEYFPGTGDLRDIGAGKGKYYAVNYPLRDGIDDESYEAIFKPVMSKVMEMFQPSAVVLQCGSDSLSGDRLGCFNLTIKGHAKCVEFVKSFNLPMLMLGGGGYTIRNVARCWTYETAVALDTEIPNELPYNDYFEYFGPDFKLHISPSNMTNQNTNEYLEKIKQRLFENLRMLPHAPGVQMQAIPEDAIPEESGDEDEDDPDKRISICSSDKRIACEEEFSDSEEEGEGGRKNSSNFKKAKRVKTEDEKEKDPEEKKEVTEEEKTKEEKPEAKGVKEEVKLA

MC-38 = test: Antiproliferative activity against mouse MC38 cells measured after 72 hrs by CCK8 assay; type: functional; conditions: Mus musculus, MC-38
[6] = AUC (0 to infinity) in ICR mouse at 20 mg/kg, po by LC-MS/MS analysis; type: ADME, organism-based; set-up: time infinity, route oral, dose 20 mg/kg; conditions: in vivo
[7] = Tmax in ICR mouse at 20 mg/kg, po by LC-MS/MS analysis; type: ADME, organism-based; conditions: in vivo

half-life [1]: 4.08 h | k el at 24 h [2]: 5.67e-05 s⁻¹ | AUC(0-t) [3]: 588 ng·h/mL | MRT [4]: 2.44 h | Ki (Adenosine receptor A2a): 0.0065 µM | Cmax [5]: 598 ng/mL | GI50 (CT26): 6.9 µM | IC50 (Histone deacetylase 1): 0.113 µM | AUC(0-inf) [6]: 602 ng·h/mL | Tmax [7]: 0.25 h
SMILES: N#Cc1cccc(-c2nc3c4cnn(CCc5ccc(C(=O)Nc6ccccc6N)cc5)c4nc(N)n3n2)c1
GI50 (MC-38): 5.4 µM

From ChEMBL document CHEMBL5030563, “Structure-Based Design of Dual-Acting Compounds Targeting Adenosine A2A Receptor and Histone Deacetylase as Novel Tumor Immunotherapeutic Agents” (J Med Chem, 2021)
